The text below walks through data of patent US20240158446A1, “CYCLIC COMPOUND HAVING SELECTIVE INHIBITORY ACTION ON KRAS OVER HRAS AND NRAS” (CHUGAI SEIYAKU KABUSHIKI KAISHA, priority 2021, published 2024).

Each structure is given as a SMILES string.

Assay [1] deals with GDP-bound KRAS wild-type protein (Homo sapiens, UniProt P01116). Put plainly: Binding to KRAS by surface plasmon resonance (SPR), Single Cycle Kinetics. The settings on record: SPR, Single Cycle Kinetics, 1:1 binding model; GDP-bound KRAS wild-type protein; read-out: KRAS KD. On the technique in general: In SPR one partner is held on a chip, and binding of the other changes the refractive index at the surface.

Assay [2] deals with GDP-bound NRAS wild-type protein (Homo sapiens, UniProt P01111). Nature of the assay: Binding to NRAS by surface plasmon resonance (SPR), Single Cycle Kinetics. The settings on record: SPR; GDP-bound NRAS wild-type protein vs GDP-bound KRAS wild-type protein; KD ratio class.
The target in assay [3] is GDP-bound HRAS wild-type protein (Homo sapiens, UniProt P01112). Put plainly: Binding to HRAS by surface plasmon resonance (SPR), Single Cycle Kinetics. The settings on record: SPR; GDP-bound HRAS wild-type protein vs GDP-bound KRAS wild-type protein; KD ratio class.
Assay [4] has as its system human lung cancer strain NCI-H441.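 Also: cell proliferation inhibition after four days measured by CellTiter-Glo.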

GDP-bound NRAS wild-type protein, sequence (P01111 whole entry): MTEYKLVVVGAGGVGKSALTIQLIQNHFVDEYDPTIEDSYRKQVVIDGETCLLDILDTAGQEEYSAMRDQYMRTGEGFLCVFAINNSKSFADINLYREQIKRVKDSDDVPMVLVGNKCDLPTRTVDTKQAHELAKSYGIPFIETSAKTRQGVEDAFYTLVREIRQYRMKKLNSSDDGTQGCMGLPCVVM
GDP-bound KRAS wild-type protein, sequence (P01116 whole entry): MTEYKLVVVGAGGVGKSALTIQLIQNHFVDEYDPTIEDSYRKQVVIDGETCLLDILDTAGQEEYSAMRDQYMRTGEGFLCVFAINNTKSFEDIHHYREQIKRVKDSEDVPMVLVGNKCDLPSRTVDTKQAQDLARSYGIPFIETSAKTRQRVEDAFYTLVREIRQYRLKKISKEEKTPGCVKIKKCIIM
GDP-bound HRAS wild-type protein, sequence (P01112 whole entry): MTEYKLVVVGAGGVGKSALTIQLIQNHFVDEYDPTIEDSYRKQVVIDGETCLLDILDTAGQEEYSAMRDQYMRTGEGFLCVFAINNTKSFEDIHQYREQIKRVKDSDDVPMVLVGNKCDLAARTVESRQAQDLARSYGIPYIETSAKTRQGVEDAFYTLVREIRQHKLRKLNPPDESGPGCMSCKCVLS

Broadly, the Kd is a measure of binding affinity in units of concentration. One may read the IC50 as the point on the concentration scale where inhibition reaches its midpoint. Higher therefore signals weaker potency in that assay. Consider `CCO[C@@H]1C[C@H]2C(=O)NC3(CCC3)C(=O)N(C)[C@@H](C3CCCC3)C(=O)N(C)[C@H](C(=O)N(C)C)CC(=O)N(C)[C@@H](CC(C)C)C(=O)N[C@@H]([C@@H](C)CC)C(=O)N(C)CC(=O)N(C)[C@H]3C/C=C\CCN(C3=O)[C@@H](CC3CCCCC3)C(=O)N(C)CC(=O)N[C@@H](CCc3cc(F)c(C(F)(F)F)c(F)c3)C(=O)N2C1` [PP1467, (2S,8S,12R,14S,20S,23S,27S,30S,36S,38Z)-2-(cyclohexylmethyl)-20-cyclopentyl-8-[2-[3,5-difluoro-4-(trifluoromethyl)phenyl]ethyl]-12-ethoxy-27-isobutyl-N,N,4,19,22,26,32,35-octamethyl-30-[(1S)-1-methylpropyl]-3,6,9,15,18,21,25,28,31,34,42-undecaoxo-spiro[1,4,7,10,16,19,22,26,29,32,35-undecazatricyclo[34.5.1.0^10,14]dotetracont-38-ene-17,1′-cyclobutane]-23-carboxamide], for which the Kd in assay [1] stood at 0.12 nM. For the same compound, in assay [2], the “NRAS/KRAS (ratio of KD value for NRAS to KD value for KRAS)” value is “A (a compound having 10 or more and less than 20 is denoted as A)”. In addition, the “HRAS/KRAS (ratio of KD value for HRAS to KD value for KRAS)” value in assay [3] was “A (a compound having 10 or more and less than 20 is denoted as A)”. In assay [4], this compound showed an IC50 of 11.2 nM.
On to `C=CC[C@H]1C(=O)N[C@@H]([C@@H](C)CC)C(=O)N(C)CC(=O)N(C)[C@H]2C/C=C\CCN(C2=O)[C@@H](CC2CCCCC2)C(=O)N(C)CC(=O)N[C@@H](CCc2cc(F)c(C(F)(F)F)c(F)c2)C(=O)N2C[C@H](OCC)C[C@H]2C(=O)NC2(CCC2)C(=O)N(C)[C@@H](C2CCCC2)C(=O)N(C)[C@H](C(=O)N(C)C)CC(=O)N1C` [PP1468, (2S,8S,12R,14S,20S,23S,27S,30S,36S,38Z)-27-allyl-2-(cyclohexylmethyl)-20-cyclopentyl-8-[2-[3,5-difluoro-4-(trifluoromethyl)phenyl]ethyl]-12-ethoxy-N,N,4,19,22,26,32,35-octamethyl-30-[(1S)-1-methylpropyl]-3,6,9,15,18,21,25,28,31,34,42-undecaoxo-spiro[1,4,7,10,16,19,22,26,29,32,35-undecazatricyclo[34.5.1.0^10,14]dotetracont-38-ene-17,1′-cyclobutane]-23-carboxamide], for which, in assay [1], the Kd was determined as 0.12 nM. Besides, in assay [2], the “NRAS/KRAS (ratio of KD value for NRAS to KD value for KRAS)” value is “A (a compound having 10 or more and less than 20 is denoted as A)”. Moreover, the “HRAS/KRAS (ratio of KD value for HRAS to KD value for KRAS)” value in assay [3] is “A (a compound having 10 or more and less than 20 is denoted as A)”. Besides, 9.5 nM corresponded to half-maximal inhibition in assay [4] (IC50).
Regarding `CCO[C@@H]1C[C@H]2C(=O)NC3(CCC3)C(=O)N(C)[C@@H](C3CCCC3)C(=O)N(C)[C@H](C(=O)N(C)C)CC(=O)N(C)[C@@H](CC3CCC3)C(=O)N[C@@H]([C@@H](C)CC)C(=O)N(C)CC(=O)N(C)[C@H]3C/C=C\CCN(C3=O)[C@@H](CC3CCCCC3)C(=O)N(C)CC(=O)N[C@@H](CCc3cc(F)c(C(F)(F)F)c(F)c3)C(=O)N2C1` [PP1469], the Kd in assay [1] amounted to 0.18 nM. For the same compound, the “NRAS/KRAS (ratio of KD value for NRAS to KD value for KRAS)” value in assay [2] was “A (a compound having 10 or more and less than 20 is denoted as A)”. In assay [3], the “HRAS/KRAS (ratio of KD value for HRAS to KD value for KRAS)” value was “A (a compound having 10 or more and less than 20 is denoted as A)”. In assay [4], this compound showed an IC50 of 22.2 nM.
`CCO[C@@H]1C[C@H]2C(=O)NC3(CCCC3)C(=O)N(C)[C@@H](C3CCCC3)C(=O)N(C)[C@H](C(=O)N(C)C)CC(=O)N(C)[C@@H](C)C(=O)N[C@@H]([C@@H](C)CC)C(=O)N(C)CC(=O)N(C)[C@H]3C/C=C\CCN(C3=O)[C@@H](CC3CCCCC3)C(=O)N(C)CC(=O)N[C@@H](CCc3cc(F)c(C(F)(F)F)c(F)c3)C(=O)N2C1` [PP1470]: in assay [1], the Kd was determined as 0.22 nM. In assay [2], the “NRAS/KRAS (ratio of KD value for NRAS to KD value for KRAS)” value was “A (a compound having 10 or more and less than 20 is denoted as A)”. The “HRAS/KRAS (ratio of KD value for HRAS to KD value for KRAS)” value in assay [3] was “A (a compound having 10 or more and less than 20 is denoted as A)”. Further, the IC50 in assay [4] was determined as 111 nM.
`CC[C@H](C)[C@@H]1NC(=O)[C@H](CC)N(C)C(=O)C[C@@H](C(=O)N(C)C)N(C)C(=O)[C@H](C2CCCC2)N(C)C(=O)C2(CCC2)NC(=O)[C@@H]2C[C@H](C)CN2C(=O)[C@H](CCc2cc(F)c(C(F)(F)F)c(F)c2)NC(=O)CN(C)C(=O)[C@H](CC2CCCCC2)N2CC/C=C\C[C@@H](C2=O)N(C)C(=O)CN(C)C1=O` [PP1471]: the dissociation constant (Kd) in assay [1] came to 0.25 nM. For the same compound, in assay [2], the “NRAS/KRAS (ratio of KD value for NRAS to KD value for KRAS)” value was “A (a compound having 10 or more and less than 20 is denoted as A)”. Besides, the “HRAS/KRAS (ratio of KD value for HRAS to KD value for KRAS)” value in assay [3] is “A (a compound having 10 or more and less than 20 is denoted as A)”. In addition, the IC50 in assay [4] was found to be 48.2 nM.
On to `CCO[C@@H]1C[C@H]2C(=O)NC3(CCC3)C(=O)N(C)[C@@H](C3CCCC3)C(=O)N(C)[C@H](C(=O)N(C)C)CC(=O)N(C)[C@@H](CC3CCCC3)C(=O)N[C@@H]([C@@H](C)CC)C(=O)N(C)CC(=O)N(C)[C@H]3C/C=C\CCN(C3=O)[C@@H](CC3CCCCC3)C(=O)N(C)CC(=O)N[C@@H](CCc3cc(F)c(C(F)(F)F)c(F)c3)C(=O)N2C1` [PP1472, (2S,8S,12R,14S,20S,23S,27S,30S,36S,38Z)-2-(cyclohexylmethyl)-20-cyclopentyl-27-(cyclopentylmethyl)-8-[2-[3,5-difluoro-4-(trifluoromethyl)phenyl]ethyl]-12-ethoxy-N,N,4,19,22,26,32,35-octamethyl-30-[(1S)-1-methylpropyl]-3,6,9,15,18,21,25,28,31,34,42-undecaoxo-spiro[1,4,7,10,16,19,22,26,29,32,35-undecazatricyclo[34.5.1.0^10,14]dotetracont-38-ene-17,1′-cyclobutane]-23-carboxamide], for which the Kd in assay [1] is 0.14 nM. For the same compound, the “NRAS/KRAS (ratio of KD value for NRAS to KD value for KRAS)” value in assay [2] was “A (a compound having 10 or more and less than 20 is denoted as A)”. In addition, in assay [3], the “HRAS/KRAS (ratio of KD value for HRAS to KD value for KRAS)” value is “A (a compound having 10 or more and less than 20 is denoted as A)”. Further, in assay [4], the IC50 worked out at 37.1 nM.
For the compound `CCO[C@@H]1C[C@H]2C(=O)NC3(CCCC3)C(=O)N(C)[C@@H](C3CCCC3)C(=O)N(C)[C@H](C(=O)N(C)C)CC(=O)N(C)[C@@H](CC(C)C)C(=O)N[C@@H]([C@@H](C)CC)C(=O)N(C)CC(=O)N(C)[C@H]3C/C=C\CCN(C3=O)[C@@H](CC3CCCCC3)C(=O)N(C)CC(=O)N[C@@H](CCc3cc(F)c(C(F)(F)F)c(F)c3)C(=O)N2C1` [PP1473], the Kd in assay [1] is 0.19 nM. The “NRAS/KRAS (ratio of KD value for NRAS to KD value for KRAS)” value in assay [2] was “A (a compound having 10 or more and less than 20 is denoted as A)”. Further, the “HRAS/KRAS (ratio of KD value for HRAS to KD value for KRAS)” value in assay [3] is “A (a compound having 10 or more and less than 20 is denoted as A)”. The same compound yielded an IC50 in assay [4] of 36.6 nM.
For `CCO[C@@H]1C[C@H]2C(=O)NC3(CCC3)C(=O)N(C)[C@@H](C3CCCC3)C(=O)N(C)[C@H](C(=O)N(C)C)CC(=O)N(C)[C@@H](CC(C)(C)C)C(=O)N[C@@H]([C@@H](C)CC)C(=O)N(C)CC(=O)N(C)[C@H]3C/C=C\CCN(C3=O)[C@@H](CC3CCCCC3)C(=O)N(C)CC(=O)N[C@@H](CCc3cc(F)c(C(F)(F)F)c(F)c3)C(=O)N2C1` [PP1474], the Kd in assay [1] was found to be 0.23 nM. In assay [2], the “NRAS/KRAS (ratio of KD value for NRAS to KD value for KRAS)” value is “A (a compound having 10 or more and less than 20 is denoted as A)”. Further, the “HRAS/KRAS (ratio of KD value for HRAS to KD value for KRAS)” value in assay [3] was “A (a compound having 10 or more and less than 20 is denoted as A)”. In assay [4], this compound displayed an IC50 of 48.2 nM.
